Experiments:
[1] = Partition coefficient (logP); assay type: physicochemical; conditions: octanol/water
[2] = biological target: T1, ATP-dependent translocase ABCB1 (Homo sapiens, UniProt P08183); assay: Inhibition of P-gp was determined using rhodamine-assay in human CaCo-2 cells; assay type: functional, cell-based; parameters: concentration or dose not given beside the values
Target sequence in this assay (P08183 whole entry): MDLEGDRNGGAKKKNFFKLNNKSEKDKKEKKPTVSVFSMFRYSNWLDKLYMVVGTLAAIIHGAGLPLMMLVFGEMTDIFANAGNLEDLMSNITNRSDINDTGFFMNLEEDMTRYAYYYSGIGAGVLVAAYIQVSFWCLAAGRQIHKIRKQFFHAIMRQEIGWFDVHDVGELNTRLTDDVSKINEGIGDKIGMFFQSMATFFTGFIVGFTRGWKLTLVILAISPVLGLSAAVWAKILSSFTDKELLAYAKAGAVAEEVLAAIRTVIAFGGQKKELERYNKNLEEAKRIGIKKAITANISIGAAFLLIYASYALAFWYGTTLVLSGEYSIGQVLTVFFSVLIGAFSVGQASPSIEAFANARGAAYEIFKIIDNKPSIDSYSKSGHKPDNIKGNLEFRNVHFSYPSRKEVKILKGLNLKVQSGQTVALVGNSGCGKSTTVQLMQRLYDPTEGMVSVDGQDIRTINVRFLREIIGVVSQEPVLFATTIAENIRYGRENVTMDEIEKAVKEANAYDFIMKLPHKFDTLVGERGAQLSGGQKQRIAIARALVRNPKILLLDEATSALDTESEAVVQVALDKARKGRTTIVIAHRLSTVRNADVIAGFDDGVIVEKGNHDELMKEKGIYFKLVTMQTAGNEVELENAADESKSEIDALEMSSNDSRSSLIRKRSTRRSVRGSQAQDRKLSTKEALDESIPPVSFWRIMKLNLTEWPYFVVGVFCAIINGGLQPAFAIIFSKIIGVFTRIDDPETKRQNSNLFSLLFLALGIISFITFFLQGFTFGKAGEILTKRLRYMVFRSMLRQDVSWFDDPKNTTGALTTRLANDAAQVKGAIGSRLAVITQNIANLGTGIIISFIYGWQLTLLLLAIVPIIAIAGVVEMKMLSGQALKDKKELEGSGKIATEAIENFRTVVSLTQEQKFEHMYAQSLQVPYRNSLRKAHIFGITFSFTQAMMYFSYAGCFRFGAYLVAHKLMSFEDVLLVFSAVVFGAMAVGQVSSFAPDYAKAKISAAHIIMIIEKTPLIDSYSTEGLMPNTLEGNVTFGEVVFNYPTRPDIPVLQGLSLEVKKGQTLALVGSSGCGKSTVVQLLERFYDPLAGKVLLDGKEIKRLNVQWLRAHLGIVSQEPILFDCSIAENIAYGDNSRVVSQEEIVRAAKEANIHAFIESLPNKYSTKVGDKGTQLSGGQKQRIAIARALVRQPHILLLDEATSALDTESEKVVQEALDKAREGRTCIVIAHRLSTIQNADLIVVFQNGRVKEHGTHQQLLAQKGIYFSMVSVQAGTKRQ

[3] = biological target: T2, ATP-dependent translocase ABCB1 (Mus musculus, UniProt P21447); assay: Inhibition of P-glycoprotein, mouse L-mdr1a expressed in LLC-PK1 epithelial cells using calcein-AM polarisation assay; assay type: functional, cell-based
[4] = biological target: T1, ATP-dependent translocase ABCB1; assay: Inhibition of P-glycoprotein using ATPase in MDR1 membranes; assay type: functional, cell membranes
Target sequence in this assay (P08183 whole entry): as above

[5] = biological target: T1, ATP-dependent translocase ABCB1; assay: TP_TRANSPORTER: inhibition of Rhodamine 123 efflux in Caco-2 cells; assay type: functional, cell-based; parameters: concentration or dose not given beside the values; scale not given: the % may be the effect or the level left
Target sequence in this assay (P08183 whole entry): as above

[6] = biological target: T3, ATP-dependent translocase ABCB1 (Mus musculus, UniProt P06795); assay: Inhibition of P-glycoprotein, mouse L-mdr1b expressed in LLC-PK1 epithelial cells using calcein-AM polarisation assay; assay type: functional, cell-based
[7] = biological target: T3, ATP-dependent translocase ABCB1; assay: TP_TRANSPORTER: inhibition of Calcein-AM efflux in Mdr1b-expressing LLC-PK1 cells; assay type: functional, cell-based
[8] = biological target: T2, ATP-dependent translocase ABCB1; assay: TP_TRANSPORTER: inhibition of Calcein-AM efflux in Mdr1a-expressing LLC-PK1 cells; assay type: functional, cell-based
[9] = biological target: T1, ATP-dependent translocase ABCB1; assay: Inhibition of P-glycoprotein, human L-MDR1 expressed in LLC-PK1 epithelial cells using calcein-AM polarisation assay; assay type: functional, cell-based
Target sequence in this assay (P08183 whole entry): as above

Cytochrome P450 3A4 [10] = biological target: T4, Cytochrome P450 3A4 (Homo sapiens, UniProt P08684)
Description: Inhibition of human cytochrome P450 3A4

[11] = biological target: T2, ATP-dependent translocase ABCB1; assay: P-gp activity was measured by a direct transport assay, using polarized LLC-PK1 epithelial cells; assay type: functional, cell-based; conditions: human
[12] = biological target: T1, ATP-dependent translocase ABCB1; assay: P-gp activity was measured by a direct transport assay, using polarized LLC-MDR1 epithelial cells; conditions: epithelial cell
[13] = biological target: T2, ATP-dependent translocase ABCB1; assay: P-gp activity was measured by a direct transport assay, using polarized LLC-mdr1a epithelial cells; assay type: functional, cell-based; conditions: human, epithelial cell
[14] = biological target: T1, ATP-dependent translocase ABCB1; assay: TP_TRANSPORTER: inhibition of Calcein-AM efflux in MDR1-expressing LLC-PK1 cells; assay type: functional, cell-based
Target sequence in this assay (P08183 whole entry): as above

Cytochrome P450 3A4 [15] = biological target: T4, Cytochrome P450 3A4; remark: listed apart in the source
Description: Inhibition of human cytochrome P450 3A4

T4 sequence (P08684 whole entry): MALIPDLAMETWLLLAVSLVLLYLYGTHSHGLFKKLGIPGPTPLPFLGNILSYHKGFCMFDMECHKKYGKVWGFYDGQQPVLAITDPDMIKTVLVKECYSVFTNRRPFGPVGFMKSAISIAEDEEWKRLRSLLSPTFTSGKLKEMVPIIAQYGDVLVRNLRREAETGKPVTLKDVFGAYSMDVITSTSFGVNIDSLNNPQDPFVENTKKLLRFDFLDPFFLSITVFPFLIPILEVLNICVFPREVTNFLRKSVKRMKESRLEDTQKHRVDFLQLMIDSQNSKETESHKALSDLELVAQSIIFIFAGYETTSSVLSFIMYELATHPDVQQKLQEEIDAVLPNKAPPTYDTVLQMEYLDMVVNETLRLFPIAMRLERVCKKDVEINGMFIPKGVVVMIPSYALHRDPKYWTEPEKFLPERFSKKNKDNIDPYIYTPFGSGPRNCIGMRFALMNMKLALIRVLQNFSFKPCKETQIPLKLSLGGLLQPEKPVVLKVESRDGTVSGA
T3 sequence (P06795 whole entry): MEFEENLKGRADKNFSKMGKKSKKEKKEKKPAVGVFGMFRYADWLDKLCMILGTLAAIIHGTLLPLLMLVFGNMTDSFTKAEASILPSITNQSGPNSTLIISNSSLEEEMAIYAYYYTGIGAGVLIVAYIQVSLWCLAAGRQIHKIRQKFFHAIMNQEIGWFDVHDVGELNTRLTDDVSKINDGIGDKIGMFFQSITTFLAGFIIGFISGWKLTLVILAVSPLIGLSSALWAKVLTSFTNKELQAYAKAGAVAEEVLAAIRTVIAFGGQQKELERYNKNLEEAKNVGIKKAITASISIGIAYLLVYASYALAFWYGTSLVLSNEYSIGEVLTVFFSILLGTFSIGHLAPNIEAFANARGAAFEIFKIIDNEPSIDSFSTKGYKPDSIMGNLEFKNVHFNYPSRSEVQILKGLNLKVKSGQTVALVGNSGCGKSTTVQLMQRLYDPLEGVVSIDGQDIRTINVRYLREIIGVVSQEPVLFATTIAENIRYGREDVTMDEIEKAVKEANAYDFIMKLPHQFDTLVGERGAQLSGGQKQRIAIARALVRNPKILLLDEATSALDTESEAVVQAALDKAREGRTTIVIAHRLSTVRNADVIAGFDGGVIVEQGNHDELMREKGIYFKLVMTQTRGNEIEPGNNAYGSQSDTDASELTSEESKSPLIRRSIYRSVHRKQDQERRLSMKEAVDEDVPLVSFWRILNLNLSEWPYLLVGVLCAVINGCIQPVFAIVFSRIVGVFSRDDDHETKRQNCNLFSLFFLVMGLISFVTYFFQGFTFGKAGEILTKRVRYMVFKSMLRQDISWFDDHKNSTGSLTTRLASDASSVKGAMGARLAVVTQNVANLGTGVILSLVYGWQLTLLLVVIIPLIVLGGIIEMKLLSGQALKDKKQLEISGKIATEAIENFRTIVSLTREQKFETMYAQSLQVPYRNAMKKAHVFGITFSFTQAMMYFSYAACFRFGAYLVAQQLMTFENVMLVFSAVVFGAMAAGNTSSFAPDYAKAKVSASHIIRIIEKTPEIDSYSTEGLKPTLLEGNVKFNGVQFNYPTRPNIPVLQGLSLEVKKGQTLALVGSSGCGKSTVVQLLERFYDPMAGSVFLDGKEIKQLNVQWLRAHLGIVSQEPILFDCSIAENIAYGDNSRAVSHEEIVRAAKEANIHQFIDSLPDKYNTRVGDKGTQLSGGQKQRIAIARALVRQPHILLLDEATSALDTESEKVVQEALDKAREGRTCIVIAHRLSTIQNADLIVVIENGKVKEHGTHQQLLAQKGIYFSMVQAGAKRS
T2 sequence (P21447 whole entry): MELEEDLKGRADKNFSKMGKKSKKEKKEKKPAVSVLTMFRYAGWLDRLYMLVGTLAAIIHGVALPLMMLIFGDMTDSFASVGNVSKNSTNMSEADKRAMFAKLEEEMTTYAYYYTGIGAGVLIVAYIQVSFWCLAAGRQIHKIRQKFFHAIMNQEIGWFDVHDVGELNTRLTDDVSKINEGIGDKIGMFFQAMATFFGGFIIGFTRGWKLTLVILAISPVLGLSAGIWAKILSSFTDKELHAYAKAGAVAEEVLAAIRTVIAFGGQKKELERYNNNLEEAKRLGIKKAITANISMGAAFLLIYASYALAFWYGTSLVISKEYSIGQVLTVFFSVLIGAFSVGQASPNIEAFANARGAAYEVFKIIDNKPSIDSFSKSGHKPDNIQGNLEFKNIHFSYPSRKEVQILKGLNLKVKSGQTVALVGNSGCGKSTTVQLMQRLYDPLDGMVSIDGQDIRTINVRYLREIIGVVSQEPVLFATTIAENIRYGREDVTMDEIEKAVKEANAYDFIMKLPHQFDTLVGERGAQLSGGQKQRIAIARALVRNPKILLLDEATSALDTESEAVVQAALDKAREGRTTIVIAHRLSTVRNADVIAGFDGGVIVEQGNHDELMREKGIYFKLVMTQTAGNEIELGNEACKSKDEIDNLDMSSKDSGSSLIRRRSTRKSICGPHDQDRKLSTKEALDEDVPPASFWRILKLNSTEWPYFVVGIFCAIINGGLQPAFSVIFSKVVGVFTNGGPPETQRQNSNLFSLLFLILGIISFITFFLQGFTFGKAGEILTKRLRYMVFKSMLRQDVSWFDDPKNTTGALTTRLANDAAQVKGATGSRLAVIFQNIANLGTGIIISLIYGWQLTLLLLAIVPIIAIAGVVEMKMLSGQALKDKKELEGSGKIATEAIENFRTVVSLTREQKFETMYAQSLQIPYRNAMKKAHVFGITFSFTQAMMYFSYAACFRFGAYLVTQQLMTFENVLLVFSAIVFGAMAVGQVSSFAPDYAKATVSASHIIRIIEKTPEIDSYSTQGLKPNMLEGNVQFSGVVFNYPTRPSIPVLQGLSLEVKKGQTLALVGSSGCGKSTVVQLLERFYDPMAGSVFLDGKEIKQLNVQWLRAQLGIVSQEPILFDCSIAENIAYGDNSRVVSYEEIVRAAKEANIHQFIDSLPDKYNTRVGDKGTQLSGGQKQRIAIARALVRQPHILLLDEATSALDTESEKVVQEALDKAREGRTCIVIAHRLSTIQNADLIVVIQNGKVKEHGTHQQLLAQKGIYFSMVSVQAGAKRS

Row | Compound | logP ([1]; read-out: logP) | Inhibition [2] [%] | IC50 [3] [µM] | Activity [4] [nmol/min/mg] | Activity [5] [%] | IC50 [6] [µM] | IC50 [7] [µM] | IC50 [8] [µM] | other results
1 | CCC(C)n1ncn(-c2ccc(N3CCN(c4ccc(OC[C@H]5CO[C@](Cn6cncn6)(c6ccc(Cl)cc6Cl)O5)cc4)CC3)cc2)c1=O (some centres undefined) [ITRACONAZOLE] | 6.5 | 2 | 0.2 | 18 | – | – | – | – | –
2 | COc1ccc(CCN2CCC(Nc3nc4ccccc4n3Cc3ccc(F)cc3)CC2)cc1 [ASTEMIZOLE] | 5.7 | 39 | 1.3 | 18 | 39 | 1.7 | 1.7 | 1.3 | –
3 | CN/C(=C\[N+](=O)[O-])NCCSCc1ccc(CN(C)C)o1 [RANITIDINE] | 0.6 | 0 | > 50 | -2.4 | – | > 50 | – | – | IC50 [9]: > 50 µM
4 | CC1(C)SSC(C)(C)[C@@H](NC(=O)[C@@H](N)Cc2ccc(O)cc2)C(=O)NCC(=O)N[C@@H](Cc2ccccc2)C(=O)N[C@H]1C(=O)O | 1 | 0 | > 50 | 4 | 0 | > 50 | > 50 | > 50 | IC50 (Cytochrome P450 3A4 [10]): > 50 µM; Ratio [11]: 0.8; Ratio [12]: 0.6; Ratio [13]: 0.9
5 | IVERMECTIN | – | 34 | – | -3.4 | 34 | – | – | – | logP [1]: 4; IC50 ([6]; llc-pk1): 0.5 µM; IC50 ([9]; llc-pk1): 0.1 µM; IC50 ([7]; llc-pk1): 0.5 µM; IC50 ([8]; llc-pk1): 0.5 µM; IC50 ([14]; llc-pk1): 0.1 µM; IC50 ([3]; llc-pk1): 0.5 µM; IC50 (Cytochrome P450 3A4 [15]): > 50 µM
6 | CC[C@H]1OC(=O)[C@H](C)[C@@H](O[C@H]2C[C@@](C)(OC)[C@@H](O)[C@H](C)O2)[C@H](C)[C@@H](O[C@@H]2O[C@H](C)C[C@H](N(C)C)[C@H]2O)[C@](C)(O)C[C@@H](C)C(=O)[C@H](C)[C@@H](O)[C@]1(C)O [ERYTHROMYCIN] | 2.5 | – | > 50 | 4 | – | – | – | – | IC50 (Cytochrome P450 3A4 [10]): 33 µM
7 | COC(=O)C1=C(C)NC(C)=C(C(=O)OCCN(C)Cc2ccccc2)C1c1cccc([N+](=O)[O-])c1 (centres undefined) [NICARDIPINE] | 5.5 | – | 2.5 | 18 | 100 | 8 | 8 | 2.5 | –
8 | C=C[C@H]1C[N@@]2CC[C@H]1C[C@@H]2[C@@H](O)c1ccnc2ccc(OC)cc12 [QUINIDINE] | 2.8 | – | 13 | 20 | – | 10 | 10 | 13 | –
9 | Cc1ncc2n1-c1ccc(Cl)cc1C(c1ccccc1F)=NC2 [MIDAZOLAM] | 3.3 | 12 | > 50 | 6 | 12 | 33 | 33 | > 50 | IC50 [9]: > 50 µM; IC50 [14]: > 50 µM
10 | COc1cc2c(c(OC)c1OC)-c1ccc(OC)c(=O)cc1[C@@H](NC(C)=O)CC2 [COLCHICINE] | – | 8 | > 50 | 0.1 | 8 | > 50 | > 50 | > 50 | IC50 [9]: > 50 µM; IC50 [14]: > 50 µM
11 | CNC(=C[N+](=O)[O-])NCCSCc1ccc(CN(C)C)o1 [RANITIDINE] | – | – | – | – | 0 | – | > 50 | > 50 | IC50 [14]: > 50 µM
12 | Clc1ccccc1C(c1ccccc1)(c1ccccc1)n1ccnc1 [CLOTRIMAZOLE] | 5.3 | 29 | 4.8 | 7.5 | 29 | 3.5 | 3.5 | 4.8 | –
13 | CN/C(=N/CCSCc1nc[nH]c1C)NC#N [CIMETIDINE] | – | 4 | – | 2.8 | 4 | > 50 | > 50 | – | –
14 | CC[C@]1(O)C[C@@H]2CN(CCc3c([nH]c4ccccc34)[C@@](C(=O)OC)(c3cc4c(cc3OC)N(C)[C@H]3[C@@](O)(C(=O)OC)[C@H](OC(C)=O)[C@]5(CC)C=CCN6CC[C@]43[C@@H]65)C2)C1 [VINBLASTINE] | – | 75 | > 50 | 33 | 75 | 8 | 8 | > 50 | logP [1]: 5.2
15 | CC(C)c1nc(CN(C)C(=O)N[C@H](C(=O)N[C@@H](Cc2ccccc2)C[C@H](O)[C@H](Cc2ccccc2)NC(=O)OCc2cncs2)C(C)C)cs1 [RITONAVIR] | 4.9 | – | – | – | – | – | – | – | –
16 | C[C@H]1O[C@@H](O[C@H]2[C@@H](O)C[C@H](O[C@H]3[C@@H](O)C[C@H](O[C@H]4CC[C@@]5(C)[C@H](CC[C@@H]6[C@@H]5C[C@@H](O)[C@]5(C)[C@@H](C7=CC(=O)OC7)CC[C@]65O)C4)O[C@@H]3C)O[C@@H]2C)C[C@H](O)[C@@H]1O [DIGOXIN] | – | – | > 50 | – | – | > 50 | > 50 | > 50 | –
17 | CC1(C)S[C@@H]2[C@H](NC(=O)Cc3ccccc3)C(=O)N2[C@H]1C(=O)O [PENICILLIN G] | – | – | – | – | – | – | – | – | Ratio [13]: 1.1
18 | CCC(C)n1ncn(-c2ccc(N3CCN(c4ccc(OCC5COC(Cn6cncn6)(c6ccc(Cl)cc6Cl)O5)cc4)CC3)cc2)c1=O (centres undefined) [ITRACONAZOLE] | – | – | – | – | 2 | – | – | 0.2 | –
19 | CC(C)(C)c1ccc(C(O)CCCN2CCC(C(O)(c3ccccc3)c3ccccc3)CC2)cc1 (centres undefined) [TERFENADINE] | 5.7 | – | – | 0.4 | – | 2 | 2 | – | –
20 | COCC(=O)O[C@]1(CCN(C)CCCc2nc3ccccc3[nH]2)CCc2cc(F)ccc2[C@@H]1C(C)C [MIBEFRADIL] | – | 60 | 7.4 | 8.9 | 60 | 10 | 10 | 7.4 | logP [1]: 6.2
21 | COc1cc([C@@H]2c3cc4c(cc3[C@@H](O[C@@H]3O[C@@H]5CO[C@@H](C)O[C@H]5[C@H](O)[C@H]3O)[C@H]3COC(=O)[C@H]23)OCO4)cc(OC)c1O [ETOPOSIDE] | 0.6 | – | – | -0.2 | – | > 50 | > 50 | – | –
22 | Clc1ccc(COC(Cn2ccnc2)c2ccc(Cl)cc2Cl)c(Cl)c1 (centres undefined) [MICONAZOLE] | 5.8 | 22 | 7.8 | 1 | 22 | – | – | 7.8 | –
23 | Cc1c(O)cccc1C(=O)N[C@@H](CSc1ccccc1)[C@H](O)CN1C[C@H]2CCCC[C@H]2C[C@H]1C(=O)NC(C)(C)C | – | 30 | 2.3 | 6.2 | 30 | – | – | 2.3 | logP [1]: 5.8
24 | CC(C)(C)NC(=O)[C@@H]1C[C@@H]2CCCC[C@@H]2CN1C[C@@H](O)[C@H](Cc1ccccc1)NC(=O)[C@H](CC(N)=O)NC(=O)c1ccc2ccccc2n1 | 4.7 | 43 | – | 30 | 43 | > 50 | > 50 | – | –
25 | C[C@@H]1C[C@H]2[C@@H]3CCC4=CC(=O)C=C[C@]4(C)[C@@]3(F)[C@@H](O)C[C@]2(C)[C@@]1(O)C(=O)CO [DEXAMETHASONE] | 1.7 | 0 | > 50 | 4 | 0 | > 50 | > 50 | > 50 | IC50 [9]: > 50 µM; IC50 [14]: > 50 µM
26 | O=c1[nH]c2ccccc2n1C1CCN(CCCC(c2ccc(F)cc2)c2ccc(F)cc2)CC1 [PIMOZIDE] | – | 37 | – | 11 | 37 | > 50 | > 50 | – | –

Source: ChEMBL document CHEMBL1136781, “Comparison of in vitro P-glycoprotein screening assays: recommendations for their use in drug discovery” (J Med Chem, 2003)
